Data published in patent US5688773A, “Method of selectively destroying neoplastic cells” (priority 1994, dated 1997).

Assays:
[1] = test system: cytochrome P450 2B1-negative cells (parental 9L and 9L-Z); experiment: Drug sensitivity of cultured 9L cells; format: cell-based, rat; conditions: 5 days
Description: (§1) To test for drug sensitivity, 1×10^5 cells were plated in 30-mm tissue culture plates (Falcon 3046) in duplicate. Drugs were added 18-24 hours after seeding. Cells were allowed to grow for times ranging up to 5 days after drug treatment, and the final cell number was then determined. Cells were rinsed with phosphate buffered saline or Hank's buffered saline, dispersed using trypsin-EDTA (GIBCO/BRL, Inc.), and then counted with a hemocytometer. Results are expressed as a growth ratio, i.e., the number of cells in plates containing drug as a percentage of the corresponding drug-free controls (mean±range of duplicate determinations).

[2] = test system: cytochrome P450 2B1-positive cells (9L-ZP and L450-2); conditions: 5 days
[3] = test system: C6 cells exposed to CM from C6; experiment: C6 colony formation after conditioned medium from drug-exposed cells; format: cell-based, rat; conditions: Table V panel C; CM from treated C6 cultures
[4] = test system: C6 cells; experiment: Cell proliferation assay; format: cell-based, rat; conditions: 0.5 mM, four days
Description: Cell proliferation assays: For cell proliferation assays, cells (2×10^5 per dish, unless otherwise noted) were plated onto 10 cm dishes. […] Incubations were continued for four days and cell numbers were assayed using a Coulter counter (Coulter Electronics Inc.), after harvesting in trypsinEDTA.

[5] = test system: C6 cells; experiment: Trypsinization and replating assay; format: cell-based, rat; conditions: Table V panel B; survivors of panel A replated, nine days
Description: Trypsinization and replating assay: To determine the temporal kinetics of CPA-mediated cytotoxicity, 2×10^6 cells were plated onto each 10 cm dish. Twenty-four hours later, 0.5 mM CPA was added and cells were incubated for the times indicated in each figure. Cells were then trypsinized and replated at a density of 2×10^5 cells/10 cm dish. Nine days later, cell numbers were evaluated by Coulter counting.

[6] = test system: mixed culture of 9L and 9L-ZP cells; experiment: Cytotoxicity toward mixed cultures; format: cell-based, rat; conditions: 10 μM metyrapone
Description: FIG. 28 is a bar graph depicting the cytotoxicity of oxazaphosphorines toward mixed cultures of 9L and 9L-ZP cells. Equal numbers of parental 9L cells were mixed with 9L-ZP cells (total initial cell number=1×10^5 /30 mm tissue culture dish). […] Cell numbers were determined 5 days after beginning drug treatment. Data (mean ±range of duplicates) are expressed as growth ratio (%) relative to drug-free controls.
as §1

[7] = test system: parental 9L cells co-cultured with 9L-ZP cells; experiment: Co-culture experiments with culture inserts; format: cell-based, rat; conditions: 10 μM metyrapone
Description: Co-culture Experiments: Parental 9L cells were plated in the bottom wells of culture plates (Falcon 3502), and cytochrome P450 2B1-negative or cytochrome P450 2B1-positive cells were plated into 25 mm cell culture inserts (0.45 μm pore size, Falcon 3090). Culture media were removed 18-24 hours later by aspiration. Culture medium without drug (1.0 mL) was added to the bottom well, and 1.0 mL medium containing drug was added to the upper cell culture insert. Cell numbers were determined 5 days later, as described above.

[8] = test system: 9L-ZP cells; experiment: Drug sensitivity of cultured 9L cells with or without metyrapone; conditions: 10 μM metyrapone

## O=P1(N(CCCl)CCCl)NC(OO)CCO1 (centres unmarked) [4-hydroperoxy cyclophosphamide]
[1]
  Sensitivity to activated cyclophosphamide: inherently sensitive
[2]
  Sensitivity to activated cyclophosphamide: inherently sensitive

## CCN(CC)P1(=O)NCCCO1 (centres unmarked) [DCPA, didechlorocyclophosphamide]
[3]
  Secretion effect, C6 colony number: 301±4.6
[4]
  Effect on cell proliferation: had no effect
[4]; Table V panel A
  Cell proliferation assay, number of cells: 21.51±0.43 ×10^6
[5]
  Trypsinization and replating assay, cell count: 20.58±0.33

## CC(C)(C(=O)c1cccnc1)c1cccnc1 [metyrapone]
[6]
  Effect on cyclophosphamide killing of mixed culture: largely abrogate
[7]
  Effect on cyclophosphamide killing of both cell populations: effectively blocked
[8]; 10 μM 4-hydroperoxy cyclophosphamide
  Effect on cytotoxic effect of 4-hydroperoxy cyclophosphamide: did not block
[8]; 1 mM cyclophosphamide
  Effect on cytotoxic effects of cyclophosphamide: nearly eliminated
[8]; 2 mM ifosphamide
  Effect on cytotoxic effects of ifosphamide: nearly eliminated
